According to patent publication US11311513B2, “Methods, agents, and compositions for the treatment of acute myeloid leukemia” (UNIVERSITY OF CINCINNATI, priority 2017, dated 2022):

What was measured:
[1] = test system: 5hmC peak enrichment in the whole genome; assay: Genome-wide 5hmC-seq in ML-2 AML cells; assay type: cell-based, human
Description: FIG. 12. […] 5hmC peak counts at different IDR cutoffs were shown. (b) Read density across 5hmC enriched regions. A unified catalog of 5hmC enriched regions was generated. Shown are heatmaps rank-ordered by reads per kilobase of exon model per million mapped reads (RPKM) of 5hmC-Seal samples minus that of the input samples. (c) Read density across all RefSeq genes. Shown are heatmaps of 5hmC read density changes across all RefSeq gene loci and 5 kb flanking regions (minus input values).
100 ng genomic DNA extracted from ML-2 cell were fragmented in 50 jiL Tagmentation buffer at 55° C. Fragmented DNA was purified by Zymo DNA clean&concentrator Kit (Zymo Research, Tustin, Calif.). Then, the selective 5hmC chemical labeling was performed in 25 jiL glucosylation buffer (50 mM HEPES buffer pH 8.0, 25 mM MgCl2) containing above fragmented DNA, 100 μM N3-UDP-Glc, 1 μM β-GT, and incubated at 37° C. for 2 hr. […] The libraries were quantified by a Qubit fluorometer (Life Technologies) and sequenced on an Illumina HiSEQ4000 sequencer with paired-end 50-bp reads.
The gene network was analyzed with Ingenuity Pathway Analysis (Qiagen). […] For 5hmC sequencing analysis, illumina sequencing reads were mapped to UCSC hg19 human reference genome using bowtie program. Only uniquely mapped reads were retained for the following data analysis. […]

[2] = test system: binding of STAT3/5 to TET1 promoter; assay: ChIP-qPCR in MONOMAC-6 cells; assay type: cell-based; conditions: 500 nM, 48 hrs
Description: ChIP assay was conducted as described previously (Barry, S. P., et al., STAT3 modulates the DNA damage response pathway, Int J Exp Pathol 91:506-14 (2010)), with SABiosciences Corporation's ChampionChIP One-Day kit (Qiagen, Frederick, Md.) following the manufacturer's protocol. Chromatin from MONOMAC-6 cells were cross-linked, sonicated into an average size of ˜500 bp, and then immunoprecipitated with antibodies against STAT3 (Santa Cruz, Dallas, Tex.), STAT5 (BD Biosciences, San Jose, Calif.), or IgG (Abcam, Cambridge, Mass.). Purified DNA was amplified by real-time qPCR using primers targeting the promoter of TET1 as described before (Huang, H., et al., TET1 plays an essential oncogenic role in MLL-rearranged leukemia, Proc Natl Acad Sci USA 110:11994-99 (2013)). Sequences of qPCR primers are: Site 1 forward: 5′-[…]-3′ (SEQ ID NO: 3), reverse: 5′-[…]-3′ (SEQ ID NO: 4); Site 2 forward: 5′-[…]-3′ (SEQ ID NO: 5), reverse: 5′-[…]-3′ (SEQ ID NO: 6); Site 3 forward: 5′-[…]-3′ (SEQ ID NO: 7), reverse: 5′-[…]-3′ (SEQ ID NO: 8); Site 4 forward: 5′-[…]-3′ (SEQ ID NO: 9); reverse: 5′-[…]-3′ (SEQ ID NO: 10).

[3] = Acute and long-term toxicity profiling in healthy mice; assay type: in vivo, C57BL/6 mice; conditions: for acute (24 hrs) or long-term (200 days) toxicity: 2.5 mg/kg i.p. once per day 10 days, body, spleen, liver weights, WBC, PB and BM lineages; for WBC: 2.5 mg/kg i.p. 10 days, normal range 1.8-10.7; for BA / EO: normal range 0.0-0.2; for MO: normal range 0.0-0.4; for NE: normal range 0.1-2.4; for LY: normal range 0.9-9.3; for RBC: normal range 6.36-9.42; for PLT: normal range 592-2972
Description: FIG. 15. […] 24 hrs after the last administration, body weights (a), weights of spleens (b), livers (c), total PB WBC counts (d), BM Mac1^+Gr1^+ (e), Mac1^+Gr1^− (f), Mac1^−Gr1^+ (g), and c-Kit^+ (h) populations were analyzed.
FIG. 16. […] 200 days after the last administration, body weights (a), weights of spleens (b), livers (c), total PB WBC counts (d), BM Mac1^+Gr1^+ (e), Mac1^+Gr1^− (f), Mac1^−Gr1^+ (g), and c-Kit^+ (h) populations were analyzed.

THP-1 and KASUMI-1 cells = assay: Combination with daunorubicin in AML cells; assay type: cell-based; conditions: 25 nM compound and 100 nM DNR; 48 hours
[4] = acute, 24 hrs post last administration
[5] = long-term, 200 days post last administration

SMILES | reduction of 5hmC peak enrichment in the whole genome [1] | binding of STAT3 and STAT5 on the TET1 loci/promoter [2] | acute (24 hrs) or long-term (200 days) toxicity [3] | WBC [3, 4] | BA [3, 4] | MO [3, 4] | NE [3, 4] | LY [3, 4] | RBC [3, 4] | PLT [3, 4] | WBC [3, 5] | BA [3, 5] | EO [3, 5] | MO [3, 5] | NE [3, 5] | LY [3, 5] | RBC [3, 5] | PLT [3, 5] | combined effect with DNR on inhibiting viability (THP-1 and KASUMI-1 cells) | EO [3, 4]
COc1cc(C(c2cc3c(cc2O)OCO3)N2CCCC2)cc(OC)c1OC (stereo not drawn) [NSC-370284, 6-(1-Pyrrolidinyl(3,4,5-trimethoxyphenyl)methyl)-1,3-benzodioxol-5-ol] | around 75% | could be disturbed | no evidence of either acute or long-term toxicity | 8.35 ± 2.34 K/μl | 0.05 ± 0.05 K/μl | 0.22 ± 0.14 K/μl | 1.67 ± 0.21 K/μl | 6.74 ± 2.55 K/μl | 8.55 ± 3.34 M/μl | 460.21 ± 42.42 K/μl | 10.34 ± 2.19 K/μl | 0.03 ± 0.02 K/μl | 0.11 ± 0.01 K/μl | 0.31 ± 0.03 K/μl | 2.26 ± 0.54 K/μl | 7.68 ± 1.55 K/μl | 7.38 ± 1.7 M/μl | 929.62 ± 154.61 K/μl | works synergistically | 
CC(C)(C)c1cc(C(c2cc3c(cc2O)OCO3)N2CCOCC2)cc(C(C)(C)C)c1O (stereo not drawn) [UC-514321, 6-{[4-Hydroxy-3,5-bis(2-methyl-2-propanyl)phenyl](4-morpholinyl)methyl}-1,3-benzodioxol-5-ol] | around 75% | remarkable repression | no evidence of either acute or long-term toxicity | 8.64 ± 3.68 K/μl | 0.07 ± 0.05 K/μl | 0.27 ± 0.1 K/μl | 1.94 ± 0.56 K/μl | 6.54 ± 2.7 K/μl | 9.54 ± 0.74 M/μl | 559.43 ± 116.9 K/μl | 11.89 ± 1.64 K/μl | 0.07 ± 0.04 K/μl | 0.1 ± 0.01 K/μl | 0.25 ± 0.05 K/μl | 2.11 ± 0.44 K/μl | 8.55 ± 1.18 K/μl | 7.07 ± 0.42 M/μl | 681.56 ± 402.64 K/μl | works synergistically | 0.14 ± 0.12 K/μl
